# Laboratory results as given in US20250369032A1 (priority 2023, published 2025).
# Where “and” joins values, the source holds several entries; their conditions need not be identical. Identical values can stand only once. Like-named read-outs stand apart in the source and are kept apart here.
# Key:
# skin = details: cited from earlier work
# alkaline phosphatase [1] = molecular target: T1, alkaline phosphatase (Bos taurus, UniProt P19111)
# Procedure: Two different dosing concentrations were evaluated, 10 μL of test chemical added to 90 μL of alkaline phosphatase reaction reagent and 50 μL of test chemical added to 50 μL of alkaline phosphatase reaction reagent; all aliquoted in 96-well plates.
# • 1. Alkaline phosphatase reaction reagent (fresh, 1:100) • a. Take 4 mL of AP (1:10) stock solution, add to 36 mL PBS. Vortex mix and then invert to mix 10 times • 2. Prepare alkaline phosphatase reaction reagent for every condition • a. 200 μL AP (1:10) in 1.8 mL PBS • b. […] 200 μL AP (1:10) in 1.8 mL Acetone • 3. Prepare 96-well plates for dosing • 4. Prepare 96-well plates for PNPP reading (3 wells for each test chemical) • a. Aliquot with 200 μL PNPP
# • 1. Set 1 • a. 10 μL chemical added to 90 μL AP reaction reagent • 2. Set 2 • a. 50 μL chemical added to 50 μL AP reaction reagent • 3. Incubate for 3 hours • a. To the prepared 96-well plate with 200 μL PNPP aliquoted, add 20 μL • b. […] To the prepared 96-well plate with 200 μL PNPP aliquoted, add 20 μL • b.
# In our next study, we focused on ethanol and buffered saline (potassium chloride, potassium phosphate monobasic, sodium chloride, sodium phosphate dibasic) as our solvents.
# • 1. Alkaline phosphatase reaction reagent • a. 1:100 • i. PBS: Take 400 μL of AP (1:10) stock solution, add to 3.6 mL PBS. Vortex mix and then invert to mix 10 times • ii. […] Vortex mix and then invert to mix 10 times • b. 1:1000 • i. PBS: Take 400 μL of AP (1:100) stock solution, add to 3.6 mL PBS. Vortex mix and then invert to mix 10 times • ii. […] Vortex mix and then invert to mix 10 times • 2. Prepare 0.5 mL microcentrifuge tubes for dosing • a. One set for room temperature, one set for 37° C. • 3. Prepare 96-well plates for PNPP reading (3 wells for each test chemical) • a. Aliquot with 200 μL PNPP
# • 1. In each microcentrifuge tube for each condition, add 180 μL of the corresponding AP reaction reagent • 2. Add 20 μL of the test chemical to each microcentrifuge tube • 3. Incubate for 4 hours (one set at room temperature; one set at 37° C.) • 4. To prepared 96-well plates with 200 μL PNPP aliquoted, add 20 μL of each microcentrifuge tube to the corresponding well • 5.
# alkaline phosphatase [2] = molecular target: T1, alkaline phosphatase; assay type: biochemical; parameters: purchased Sigma Aldrich, St. Louis, MO P0114 (original source); P7640 (second source, 'new AP' condition only)
# alkaline phosphatase [3] = molecular target: T1, alkaline phosphatase; assay type: biochemical; parameters: purchased Sigma Aldrich, St. Louis, MO P0114 (original source); P7640 (second source, 'new AP' condition only); remark: listed apart in the source
# Description: Our next study focused on an in vitro method of detecting the potential of dermal corrosives to inhibit nonspecific phosphatases that may be released from the skin. We decided to test pure […] instead of relying on endogenous skin phosphatase. Alkaline phosphatase (Sigma Aldrich, St. Louis, MO) was purchased and suspended to make the reaction reagent (10,000 units). […] We note that the ratio used was 0.1 g/ml or 10% chemical-which is far in excess of any pharmaceutical applications. We further note that pharmaceutical enzyme inhibition tests, studies an use involve highly specific active site binding and these assays are conducted at ratios of micrograms-femtograms per ml. These studies are done at these ranges because these are the realistic concentrations for drug applications and therapeutics. […] So when a 50 Kg human consumes the tables, the tissues will be exposed at a 5 mg/50 kg=0.1 mg/kg=0.0000001 g/ml.
# Next two quantitative methods were evaluated: 1) using the discs parts from our OptiSafe™ test method and 2) directly into the 24-well plate.
# • 1. Alkaline phosphatase reaction reagent • a. Take 1 vial of AP, add 1 mL of PBS, mix by pipette/re-pipette 10 times • b. To a 50 mL conical tube, add 1 mL of the AP solution prepared above and 40 mL of PBS • 2. Prepare two 24-well plates (1 with discs, 1 without discs) • 3. […] Aliquot 200 μL PNPP and PBS
# • 1. Plate 1 (No Discs) • a. Add 1.25 mL from the prepared PBS-AP conical tube to each well (11 wells) • b. Add 100 μL of the test material to the well, mix with the same pipette tip, dispose and repeat for the rest of the test materials • c. Wrap the plate in saran wrap and place into the container • 2. Plate 2 (Discs) • a. Configure the 11 discs in the plate so the plate cover is stable • b. Add 1.25 mL from the prepared PBS-AP conical tube to each well (11 wells) • c. Add 100 μL of the test material to the center of the disc and repeat for the rest of the test materials • d. Put the plate cover on and place into the container • 3. […] Incubate for 1 hour
# For the new study, the alkaline phosphatase was suspended in phosphate buffered saline (PBS) to make the reaction reagent. Then, 100 μL of the test chemical is added directly into the corresponding wells on a 24-well plate with 1.25 mL of alkaline phosphatase reaction reagent already aliquoted.
# • 1. Alkaline phosphatase reaction reagent • a. Take 1 vial of AP, add 1 mL of PBS, mix by pipette/re-pipette 10 times • b. To a 50 mL conical tube, add 1 mL of the AP solution prepared above and 40 mL of PBS • 2. Prepare two 24-well plates • 3. […] Aliquot with 200 μL PNPP and PBS • 4. Prepare glass vials Repeat Procedure from Jan. […] 24-well plate • a. Add 1.25 mL from the prepared PBS-AP conical tube to each well (11 wells) • b. Add 100 μL of the test material to the well, mix with the same pipette tip, dispose and repeat for the rest of the test materials • c. Wrap the plate in saran wrap and place into the container • 2. […] To the prepared 96-well plate with 200 μL PNPP or PBS, add 20 μL from the 24-well plate • 4. Incubate for 1 hour • 5.
# • 1. 24-well plate • a. Add 1.25 mL from the prepared PBS-AP conical tube to each well (11 wells) • b. Add 100 μL of the test material to the well, mix with the same pipette tip, dispose and repeat for the rest of the test materials • c. After 10 minutes, mix each well • 2.
# [4] = tested on: endogenous skin phosphatase; assay type: biochemical, porcine; details: optical density compared to the naïve condition
# Procedure: Our next studies involved applying the test substance (500 μL) directly to the epidermis side of previously frozen porcine skin (Spear Products, Coopersburg, PA) that is placed in a holder that only exposes the epidermis side for 30 minutes, adding phosphate buffered saline (PBS) with added sodium azide (metabolic inhibitor that ensure no viable tissue), then aliquoting into cuvettes to read at an optical density of 300 nm. […] So, at the end of the initial studies described above, almost out of frustration, we tried to probe for released phosphatase activity using p-Nitrophenyl phosphate disodium salt (PNPP; Sigma Aldrich, St. Louis, MO) substrate solution to detect any presence of phosphatase.
# • 1. Thaw 2 pieces of frozen porcine skin • a. Punch out as many skin discs and mount in holders • 2. Label cuvettes (3 for each chemical)
# • 1. Add 500 μL of test chemical to holder; incubate at room temperate for 30 minutes • 2. After 30 minutes, add 2 mL of PBS-Azide to both the holder containing the test chemical; forcefully pipette and re-pipette 10 times • 3. From the holder, aliquot 400 μL into 3 cuvettes; forcefully pipette and re-pipette 3 times before dispensing into cuvettes
# Skin corrosion by GHS Category 1 dermal corrosive chemicals results in the disintegration of the epidermis into the dermis.
# porcine skin = details: R 1 and 2
# Procedure: Our initial studies involved using fresh and frozen porcine skin “buttons”. These buttons were punched out of porcine skin (Spear Products, Cooopersburg, PA) using a […] biopsy punch tool. Three different kinds of skin buttons were prepared from fresh porcine skin, frozen porcine skin, and frozen porcine skin with the fatty layer removed. […] The next day, the tubes were taken out and vortexed and 500 μL of the solution was aliquoted into cuvettes to read at three different optical density wavelengths (OD190, OD290, OD300) to evaluate the best response.
# • 1. Thaw 2 pieces of frozen porcine skin • 2. Punch out buttons: 24 buttons in each tube filled with 40 mL PBS-Azide
# • 1. Plate layout for dosing:
# • 1. Dose each tissue with 140 μL of test chemical • 2.
# • 1. Take out of incubator and vortex pulse 3× • 2. Aliquot 500 μL to cuvette and read results at OD190, OD290, and OD300
# There were three readings done at an optical density of 190, 290, and 300 nm to evaluate the best response. […] To address the variable exposure conditions, our next studies involved placing a larger porcine skin section into a holder that exposes only the epidermis side with no potential for test chemical exposure from the backside or through the sides.
# [5] = 4 mL glass vials, 30 μL into 300 μL, 1:100, 4 hours room temperature, 3 mL PNPP 1 hour
# [6] = 1:100, 20 μL into 180 μL, 0.5 mL microcentrifuge tubes, 4 hours RT, PNPP 60 min, 405 nm
# [7] = average of R1-R3, 1:100, 20 μL into 180 μL, 4 hours RT, PNPP 60 min, 405 nm
# [8] = 10-minute test chemical exposure
# [9] = fresh porcine skin, 140 μL, 18 hours at 37° C. in PBS-Azide
# [10] = frozen porcine skin with fat layer removed
# T1 sequence (P19111 20-506): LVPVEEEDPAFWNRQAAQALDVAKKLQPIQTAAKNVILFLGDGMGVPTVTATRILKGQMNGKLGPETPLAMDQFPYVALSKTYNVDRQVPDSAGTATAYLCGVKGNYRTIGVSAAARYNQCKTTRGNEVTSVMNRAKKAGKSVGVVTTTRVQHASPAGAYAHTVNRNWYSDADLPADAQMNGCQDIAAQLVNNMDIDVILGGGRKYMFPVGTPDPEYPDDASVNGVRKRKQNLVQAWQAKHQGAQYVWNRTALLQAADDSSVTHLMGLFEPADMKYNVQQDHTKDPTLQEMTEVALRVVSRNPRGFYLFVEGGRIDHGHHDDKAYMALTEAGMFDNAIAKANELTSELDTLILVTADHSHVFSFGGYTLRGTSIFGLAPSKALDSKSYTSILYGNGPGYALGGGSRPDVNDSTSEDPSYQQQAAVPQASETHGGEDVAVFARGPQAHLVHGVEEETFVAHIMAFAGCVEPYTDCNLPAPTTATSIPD
compound,measurement,setting,value
Cc1ccc(C(C)C)cc1O,in vivo GHS,"skin; skin, chemical lists of the protocols",Cat. 1B/1C
same,OD405 readings (FIG. 11D),alkaline phosphatase [1]; [5],3.444 and 3.465 and 3.398
same,A1-Results R1,alkaline phosphatase [2]; [6],0.211
same,A1-Results R3,alkaline phosphatase [2]; [6],0.272
same,OD405 readings (FIG. 11B),alkaline phosphatase [2]; [5],1.990 and 1.926
same,A1-Results AVG,alkaline phosphatase [2]; [7],0.242
same,prediction based on OD405 values (FIG. 6B),"alkaline phosphatase [2]; original alkaline phosphatase 1:1, 18 hours room temperature",incorrectly predicted
same,OD405 readings (FIG. 6D),"alkaline phosphatase [2]; original alkaline phosphatase 1:100 (100 units), 100 μL into 1 mL, 18 hours room temperature, PNPP 1 hour",0.991 and 0.974 and 1.167
"C=CCCC=C [1,5-Hexadiene]",OD405 reading (FIG. 7A),alkaline phosphatase [1],1.702
same,OD405 reading (FIG. 7B),alkaline phosphatase [1],2.947
same,A1-Results R1,alkaline phosphatase [2]; [6],3.502
same,A1-Results R3,alkaline phosphatase [2]; [6],3.498
same,A1-Results AVG,alkaline phosphatase [2]; [7],3.496
ClCCCCBr [1-Bromo-4-chlorobutane],OD405 reading (FIG. 9B),alkaline phosphatase [1],0.799
same,A1-Results R1,alkaline phosphatase [2]; [6],3.387
same,A1-Results R3,alkaline phosphatase [2]; [6],3.502
same,A1-Results AVG,alkaline phosphatase [2]; [7],3.464
CC(=O)O [Acetic acid],optical density readings (FIG. 3B),alkaline phosphatase [3],0.104 and 0.129 and 0.101
same,percent of phosphatase measured (first reading),[4],19.1%
same,percent of phosphatase measured (second reading),[4],18.6%
same,"percent of phosphatase measured, average",[4],18.9%
same,Corrosive,"skin; rabbit, in vivo",Yes
same,A1-Results AVG,alkaline phosphatase [2],0.096
same,A1-Results R1,alkaline phosphatase [2],0.096
same,A1-Results R3,alkaline phosphatase [2],0.096
same,optical density readings (FIG. 3A),alkaline phosphatase [2],0.106 and 0.102 and 0.103
CN(C)CCCNCCCN [Dimethyldipropylenetriamine],10-minute PNPP incubation readings (FIG. 5A),alkaline phosphatase [3]; [8],3.449 and 3.502 and 3.500
same,18-hour PNPP incubation readings (FIG. 5D),alkaline phosphatase [3]; [8],0.112 and 0.105 and 0.110
same,prediction based on OD405 values (FIG. 6C),alkaline phosphatase [3]; original alkaline phosphatase 1:10 dilution,mispredicted
same,prediction based on OD405 values (FIG. 6D),alkaline phosphatase [3]; original alkaline phosphatase 1:100 dilution,correctly predicted
same,optical density readings (FIG. 4),"alkaline phosphatase [3]; repeat, without discs, 18 hours 37° C., PNPP 1 hour, 405 nm",0.132 and 0.128 and 0.127
same,optical density readings (FIG. 3A),"alkaline phosphatase [3]; with discs, 100 μL into 1.25 mL reaction reagent (10,000 units), 18 hours 37° C., PNPP 1 hour, 405 nm",0.152 and 0.159 and 0.140
same,percent of phosphatase measured (first reading),[4],23.5%
same,percent of phosphatase measured (second reading),[4],17.7%
same,"percent of phosphatase measured, average",[4],20.6%
same,Corrosive,skin; Table 2,Yes
same,OD190,porcine skin; [9],>3A
same,OD290,porcine skin; [9],0.922 and 1.016
same,OD300,porcine skin; [9],0.819 and 0.887
same,OD190,porcine skin; [10],0.610 and 0.594
same,OD290,porcine skin; [10],0.238 and 0.170
same,OD300,porcine skin; [10],0.162 and 0.118
same,OD190,porcine skin; frozen porcine skin,>3A
same,OD290,porcine skin; frozen porcine skin,0.936 and 0.775
same,OD300,porcine skin; frozen porcine skin,0.806 and 0.636
same,A1-Results R1,alkaline phosphatase [2]; [6],0.118
same,A1-Results R3,alkaline phosphatase [2]; [6],0.124
same,1-hour PNPP incubation readings (FIG. 5B),alkaline phosphatase [2]; [8],0.352 and 0.283 and 0.333
same,4-hour PNPP incubation readings (FIG. 5C),alkaline phosphatase [2]; [8],0.122 and 0.116 and 0.114
same,A1-Results AVG,alkaline phosphatase [2]; [7],0.121
same,optical density readings (FIG. 3B),"alkaline phosphatase [2]; without discs, 100 μL into 1.25 mL reaction reagent (10,000 units), 18 hours 37° C., PNPP 1 hour, 405 nm",0.138 and 0.176 and 0.133
